Experimental data published in ChEMBL document CHEMBL1158270, “Triangulynes A-H and trangulynic acid, new cytotxic polyacetylenes from the marine sponge Pellina triangulata” (1996).
Activity calls are given as the source filed them.

What was measured:
Assay type in all cases: functional
K562 = experiment: Cytotoxicity against human K562 cells
LOX IMVI = experiment: Cytotoxicity against human LOXIMVI cells
HCT-116 = experiment: Cytotoxicity against human HCT116 cells
HT-29 = experiment: Cytotoxicity against human HT29 cells
RPMI-8226 = experiment: Cytotoxicity against human RPMI8226 cells
CCRF-CEM = experiment: Cytotoxicity against human CCRF-CEM cells
MOLT-4 = experiment: Cytotoxicity against human MOLT4 cells
M14 = experiment: Cytotoxicity against human M14 cells
HCT-15 = experiment: Cytotoxicity against human HCT15 cells
KM12 = experiment: Cytotoxicity against human KM12 cells
Malme-3M = experiment: Cytotoxicity against human MALME-3M cells
HCC 2998 = experiment: Cytotoxicity against human HCC2998 cells
COLO 205 = experiment: Cytotoxicity against human COLO205 cells
SR = experiment: Cytotoxicity against human SR cells
SW-620 = experiment: Cytotoxicity against human SW620 cells
HL-60 = experiment: Cytotoxicity against human HL60 cells

Measured: Activity

C#C/C=C\[C@H](O)CCCCCCCCCCC/C=C\CCCCCCCCCCC[C@H](O)C#CC#CC#CCO
active: all assays above

C#CC(O)/C=C/CCCCCCCCC/C=C\C#CCCCCCCCCCC#CC#CC#CCO (configuration not stated)
active: all assays above

C#C[C@H](O)/C=C/CCCCCCCC/C=C\CCCCCCCC[C@H](O)C#CC#CC#CCO
active: all assays above

C#C[C@H](O)/C=C/CCCCCCCCC/C=C\C#CCCCCCCCC[C@H](O)C#CC#CC#CCO
active: all assays above

C#C[C@H](O)/C=C/CCCCCCCCC/C=C\C#CCCCCCC[C@H](O)C#CC#CC#CCO
active: all assays above

C#C[C@H](O)/C=C/CCCCCCCCCC/C=C\CCCCCCCC[C@H](O)C#CC#CC#CCO
active: all assays above

C#C[C@H](O)/C=C/CCCCCCCCCCCC/C=C\CCCCCCCCCCCCCC[C@H](O)C#CC#CC#CCO
active: all assays above
